Results from publication PMC9538944, “In vitro biotransformation assays using fish liver cells: Comparing rainbow trout and carp hepatocytes” (Frontiers in Toxicology, 2022).

Tested on: rainbow trout hepatocytes
Test: In vitro hepatocyte clearance assay (substrate depletion), trout
Format: in vitro ADME, Oncorhynchus mykiss
Details: 15 °C, 4 h, 2 µM MXC / 0.5 µM BaP, mean over in vitro runs
Protocol: Isolation of hepatocytes from liver of rainbow trout was performed by a two-step collagenase perfusion procedure which is well established for rainbow trout ([Nabb et al., 2006]; [Fay et al., 2015]). […] In previous studies with common carp, an in vitro digestion method was used to isolate hepatocytes ([Cowan-Ellsberry et al., 2008]; [Dyer et al., 2008]). Here, we adopted the method of [Segner et al. (1993)] who used a two-step collagenase perfusion of carp liver via the Arteria coeliaca for cell isolation. With the perfusion method, the percentage of pancreatic cells in the final cell suspension is typically <5% ([Vogt and Segner, 1997]). Cryopreservation and thawing procedures applied for hepatocytes of both species were based on the standard protocols for rainbow trout ([Fay et al., 2014a]; [Fay et al., 2014b]). The viability of the cells was determined by means of the trypan blue exclusion assay and counting of stained and non-stained cells in a hemocytometer. The carp and trout primary hepatocyte suspensions used in the present study were aliquots of the in vitro preparations used in a previous study investigating the in vitro metabolite patterns of MXC ([Bischof et al., 2016]). A detailed description of the methods and materials used for the preparation of hepatocyte suspensions including the procedures for cell isolation, cryopreservation, and thawing, as well as cell counting, diluting to the target cell concentration, and heat-inactivating can therefore be taken from [Bischof et al. (2016)] and from the cited publications.
The in vitro hepatocyte clearance experiments were performed in a substrate depletion approach according to the methods previously published by [Fay et al. (2014b)]. These methods are in accordance with the procedures provided in the OECD TG 319A on the performance of in vitro hepatocyte clearance assays. In the present study, several in vitro runs with MXC and BaP using suspensions of either freshly isolated or cryopreserved hepatocytes from common carp and rainbow trout were carried out. For the different in vitro runs non-pooled hepatocytes were used, i.e. hepatocytes from different individual fish. For each run, triplicates of live cells (3 × 1 ml at nominal 2 × 10^6 cells/mL) and heat-inactivated cells as controls were dosed with the test chemical dissolved in acetonitrile (ACN) at the targeted concentration (2 µM for MXC and 0.5 µM for BaP) and incubated for 4 h at 15 °C (trout) or 20 °C (carp). MXC and BaP reactions were run side by side in the same in vitro run using the same hepatocyte suspensions. […]
Measured values of parent chemical concentration were log10-transformed and plotted against time. […]

[1] = cryopreserved trout hepatocytes
[2] = freshly isolated trout hepatocytes

Structure (SMILES)	Mean in vitro intrinsic clearance (CLin vitro, int) [1] [mL/h/10^6 cells]	Mean in vitro intrinsic clearance (CLin vitro, int) [2] [mL/h/10^6 cells]
c1ccc2c(c1)cc1ccc3cccc4ccc2c1c34 [BaP, benzo[a]pyrene]	0.243	0.251
COc1ccc(C(c2ccc(OC)cc2)C(Cl)(Cl)Cl)cc1 [MXC, methoxychlor]	0.283	0.250
